Here are results for four compounds from patent publication US20140378408A1, “NUCLEOSIDE 5'-PHOSPHOROTHIOATE ANALOGUES AND USES THEREOF” (BAR-ILAN UNIVERSITY, an Israeli University, priority 2012, published 2014).

For one data set, the target named is T1, Aβ40-Cu^2+ aggregates (Homo sapiens, UniProt P05067).
T1 construct: purchased GL-Biochem (Shanghai)
As to the kind of experiment: DLS, size reduction of Aβ40-Cu^2+ aggregates. The procedure:
PBS buffer, Aβ40, chelator, Zn(NO3)2, and Cu(NO3)2 solutions were filtered through a […] PVDF syringe filter. 496 μM Aβ40 solution in 10 mM PBS (pH 7.4) and 2 mM Zn(NO3)2 solution were mixed to obtain 200 μM Aβ40-Zn^2+ (1:1 ratio) of a cloudy solution. Similarly, 2 mM Cu(NO3)2 solution was added to 496 μM Aβ40 in 10 mM PBS (pH 6.6). Aβ40-Zn^2+/Cu^2+ (10 μl) solution was transferred to Eppendorf tubes containing 10 mM PBS buffer (64 or 67 μl) followed by the addition of 3 and 6 eq of 2 mM nucleotide (6 or 3 μl) solution and incubation for 45 min at RT. The resulting mixture was incubated for another 30 min at RT and DLS data were then collected in a 70 μl disposable cuvette. The final sample concentrations were 25 μM Aβ40, 25 μM Zn^2+ or Cu^2+, and 150 or 75 μM nucleotide.
Monomeric Aβ40 was incubated with either Cu^2+ or Zn^2+ for 45 min to form a 1:1 peptide metal-ion complex. […] For the Aβ40-Zn^2+ particles the instrument readings indicated a different size distribution. […] We evaluated the capacity of the phosphorothioate analogues to dissolve Aβ40-Cu^2+ or Zn^2+ aggregates, as compared to EDTA and clioquinol known for their ability to dissolve Aβ-M^2+ aggregates (Ritchie et al., 2003; Huang et al., 1997). The reduction of dH of Aβ40-Cu^2+ aggregates by EDTA, clioquinol, or tested compounds was compared to the dH of Aβ-Cu^2+ aggregate itself (FIG. 5A). In addition, the efficacy of the chelators ATP-γ-S, ADP-β-S, APCPP-γ-S and GDP-β-S to resolubilize Aβ40-Cu^2+ and Aβ40-Zn^2+ is described in FIGS. 5B and 5C relative to EDTA and clioquinol. EDTA efficiency in reducing Aβ particle size is considered as 100%.

A further data set has as its target T2, Aβ42-Zn^2+ aggregates (Homo sapiens, UniProt P05067).
T2 construct: Aggregation of monomeric Aβ42 was achieved by adding Zn(NO3)2 to a Aβ42 solution; purchased GL-Biochem (Shanghai)
As to the kind of experiment: Turbidity assay at 405 nm, Aβ42-Zn^2+ aggregates. The procedure: Aβ42 was weighted and dissolved in 10 mM NaOH, sonicated for 3 min and then freeze-dried. The freeze-dried Aβ42 was dissolved in 50 mM Tris-HCl (pH 7.4). The mixture was split and the pH of one of the samples was adjusted to 7.4 and the second sample to 6.6 by addition of 200 μM HCl. Two 300 μM Aβ42 mixtures were obtained. From these mixtures, controls and Aβ42-M^2+ aggregates were prepared by the addition of 1 mM Zn(NO3)2 or Cu(NO3)2 in DDW: 1. 200 μM Aβ42 (pH 7.4); 2. 200 μM Aβ42 (pH 6.6); 3.4×200 μM Aβ42-Zn^2+ (pH 7.4); 4.4×200 μM Aβ42-Cu^2+ (pH 6.6). The mixtures were left at RT for 2 h to form aggregates. 1 mM EDTA, ADP-β-S, and APCPP-γ-S in DDW were added to Aβ42-Zn^2+/Cu^2+ aggregates, then the mixtures were diluted with buffer to give the following mixtures: (i) 50 μM Aβ42-Cu^2+/Zn^2+; (ii) 50 μM Aβ42-Cu^2+/Zn^2+ containing 150 μM chelator (3 eq or) 300 μM chelator (6 eq) final volume 100 μl. The mixtures left at RT for 30 min before measurements, done in duplicate. 80 μl sample was taken for measurements in a quartz cuvette.
Aggregation of Aβ-metal ion complexes results in a turbid mixture that increases the light scattering in solution, leading to a higher absorbance at 405 nm (Storr et al., 2009).
Aggregation of monomeric Aβ42 was achieved by adding Zn(NO3)2 to a Aβ42 solution at pH 7.4, and Cu(NO3)2 to a Aβ42 solution at pH 6.6. […] The resultant Aβ42 mixtures were assayed for the resolubilization capacity of ADP-β-S and APCPP-γ-S in comparison to EDTA. […] At […] chelator, EDTA, ADP-β-S and APCPP-γ-S were almost equi-efficacious (FIG. 8B).

The nature of data set [1]: ESR OH radical assay, Fe^2+/H2O2 Fenton system. Particulars: N/A = minimal radical production exceeds 10%.
Data set [2] in a line: Chemical stability (acid, base, air-oxidation) monitored by 31P-NMR. The data set is classed as physicochemical. As to conditions: for stability: pD=1 as printed, two weeks. The procedure:
In order to study and evaluate the chemical stability of adenosine-5′-tetrathio bisphosphonate and di-adenosine 5′,5″-tetrathiobisphosphonate to basic and acidic condition, as well as to air-oxidation, kinetic measurements were performed by monitoring the changes in the percentage of these amalogues, using ^31P-NMR (FIGS. 16-18).
The evaluation of the stability of adenosine-5′-tetrathio bisphosphonate by ^31P-NMR was first conducted at pD=1.5 for four days. In the course of the experiment, new signals emerged in ^31P-NMR spectra at 104.4, 92.3, 89.2, 86.1, 67.8 ppm and the percentage of starting material was obtained from the ratio of integration between the starting material and the total peaks in the spectrum.
Next, we studied the stability of adenosine-5′-tetrathio bisphosphonate under basic conditions, pD=11. […] After two weeks, the ^31P-NMR spectrum was identical to the starting material, without any indication of decomposition. We associate this with the repulsion between the negative charges of the tetrathio-bisphosphonate moiety in adenosine-5′-tetrathio bisphosphonate and OH^− ions. In addition, intramolecular nucleophilic attack and formation of disulfide bond are less likely to occur under these conditions.
Furthermore, we tested the stability of adenosine-5′-tetrathio bisphosphonate under air-oxidizing conditions, by performing ^31P-NMR measurements in an open rotating NMR tube. […] The MS and ^31P-NMR analysis of the freeze-dried sample of adenosine-5′-tetrathio bisphosphonate after 3 days indicated the formation of an intramolecularly oxidized product.

T2 sequence (P05067 672-713 limits assumed): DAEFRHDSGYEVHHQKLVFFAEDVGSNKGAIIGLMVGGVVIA
T1 sequence (P05067 672-711 limits assumed): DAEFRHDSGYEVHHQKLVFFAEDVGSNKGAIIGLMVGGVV

In the case of `Nc1ncnc2c1ncn2[C@@H]1O[C@H](COP(=O)(O)OP(O)(O)=S)[C@@H](O)[C@H]1O` [ADP-β-S, adenosine 5′-[β-thio]diphosphate, reference compound], the “fold better than GDP-β-S in reducing dH of Aβ40-Cu^2+ aggregates” value on Aβ40-Cu^2+ aggregates came to 5.4 fold. Besides, the figures for the “less effective than EDTA by” value on Aβ42-Zn^2+ aggregates (3 eq) and on Aβ42-Zn^2+ aggregates (6 eq) were 63% and 27%, respectively. Also, the IC90 in data set [1] amounted to 210 ± 1 µM.

For the compound `Nc1ncnc2c1ncn2[C@@H]1O[C@H](COP(=O)(O)CP(=O)(O)OP(O)(O)=S)[C@@H](O)[C@H]1O` [APCPP-γ-S, adenosine 5′-[Pγ-thio]-α,β-methylenetriphosphate], on Aβ40-Cu^2+ aggregates (aggregate alone 1836 nm, 25 μM Aβ40-Cu^2+, pH 6.6), the “dH (particle size) of Aβ40-Cu^2+ after chelator” value turned out to be 64 nm. Moreover, the entries for the “less effective than EDTA by” value on Aβ42-Zn^2+ aggregates (3 eq) and at Aβ42-Zn^2+ aggregates (6 eq) were 21% and 12%, respectively. This compound registered an IC90 in data set [1] of 211 ± 7 µM.

Turning to adenosine-5′-tetrathiobisphosphonate, the stability result in data set [2] is recorded as “completely stable even after two weeks”. The “stability under basic conditions” value in data set [2] (pD=11, two weeks) is on record as “highly stable”.

As for “di-adenosine-5′,5″-tetrathiobisphosphonate”, the “stability under air-oxidizing conditions” value in data set [2] (open NMR tube, 3 days) is reported as “highly stable”. Also, the stability result in data set [2] is given as “identical to that of adenosine 5′-tetrathiobisphosphonate”.
